Assay results taken from patent US20220202739A1, “ENDOCANNABINOID MIMETIC AND ANTI-INFLAMMATORY COMPOUND CONTAINING COMPOSITIONS, METHODS OF PREPARATION AND USES THEREOF” (priority 2019, published 2022).

Columns and labels:
Format in all cases: cell-based, human
Conditions in all cases: pooled keratinocytes, 20 ppm, 24 hr
JUN = experiment: Gene expression custom microarray, pooled keratinocyte line (Example 3): JUN
Procedure: (§1) Cell cultures: Received and began culture of pooled keratinocyte line from Promocell (C-12006; Lot #448Z026). Cells were seeded into a 75 cm2 flask and 2 6 well dishes for expansion and exposure per manufacturer's protocol using Keratinocyte Growth Medium (C2011B), Keratinocyte Supplement Mix (C39016) and CaCl (C34005). 2 ml of prepared solution were added to each of the 6 wells and 7 ml was added to the 75 cm2 flask.
(§2) Experimental phase: When the appropriate quantity of cells were grown, they were detached as described above, but at the final step were seeded into each well of one or more 6 well dishes. Each well received 2 ml of the cells suspended in suspension so they were seeded equally. The dishes were returned to the incubator until 85-95% confluency is reached.
(§3) It was at this stage that all wells were rinsed in PBS after aspirating the growth media. The compound(s) to be tested were previously mixed into a suitable solvent (e.g., DMSO or ethanol) that can be diluted to the desired concentration of test compound (10 μl) in the culture wells without exceeding maximum solvent concentrations and adversely effecting cell viability, and mixed with Basal Keratinocyte Media. NOTE: Standard maximum levels of solvent are 0.1% for DMSO and 0.5% for ETOH. The concentration for each tested compound/natural extract is generally listed in the left-hand column of Table 4. For certain compositions (e.g., compositions 15 and 16), other concentrations were used and are noted in the body of Table 4.
(§4) Every 2 wells on the 6 well plate served as a biological replicate for the purposes of RNA isolation and genetic expression evaluations making each 6 well dish an n=3 for the test compound contained in the media. […]
(§5) At the end of the 24 hr time period, the plates were removed from the incubator, the test media aspirated, and the cells rinsed with PBS. […] Allow 1 minute for saturation of the membrane and then centrifuge for 2 minutes to complete the RNA elution. • Quantify the quantity of RNA and store at −20 C° until use (no more than 1 month) […]

KLF4 = experiment: Gene expression custom microarray, pooled keratinocyte line (Example 3): KLF4
Procedure: as §1, §2, §3, §4, §5

COL1A1 = experiment: Gene expression custom microarray, pooled keratinocyte line (Example 3): COL1A1
Procedure: as §1, §2, §3, §4, §5

Compound	↓JUN gene expression, fold increase or decrease vs untreated cells (JUN)	↑KLF4 gene expression, fold increase or decrease vs untreated cells (KLF4)	↑COL1A1 gene expression, fold increase or decrease vs untreated cells (COL1A1)
C=C(C)[C@@H]1CCC(C)=C[C@H]1c1c(O)cc(CCCCC)cc1O [CBD, cannabidiol, reference compound]	2.7 fold	3.5 fold	1.6 fold
CCCCCCCCCCCCCCCC(=O)NCCO [N-palmitoylethanolamide]	−1.9 fold	1.7 fold	−2 fold
CC(C)[C@]12O[C@H]1[C@@H]1O[C@]13[C@]1(O[C@H]1C[C@H]1C4=C(CC[C@@]13C)C(=O)OC4)[C@@H]2O [Triptolide]	−4.7 fold	1.5 fold	−1.3 fold
